Values quoted from earlier work as cited in PMC6024518 (International Journal of Immunopathology and Pharmacology, 2018).

Tested on: SYK, JAK1, JAK2, JAK3 and other kinases
Conditions: including JAK2

## COc1cc(Nc2ncc(F)c(Nc3ccc4c(n3)NC(=O)C(C)(C)O4)n2)cc(OC)c1OC [R406]
  number of kinases inhibited more potently than SYK: 24
